Read-outs that look alike come from different tables or passages of the source. Marks after values point to notes of the source that are not given here.
What was measured:
[1] = tested on: Pseudomonas aeruginosa (PAO1); test: MIC broth microdilution, PAO1; format: cell-based
Method: (§1) The minimum inhibitory concentration (MIC) for each tested compound was determined by the broth microdilution method as recommended by the Clinical and Laboratory Standards Institute (CLSI). In a 96-well plate, eleven two-fold serial dilutions of each compound were made in a final volume of 100 μL Luria Broth. Each well was inoculated with ˜10^5 bacterial cells at the initial time of incubation, prepared from a fresh log phase culture (OD600 of 0.5 to 1.0 depending on bacterial strain). The MIC was defined as the lowest concentration of compound that prevented bacterial growth after incubating 16 to 18 hours at 37° C. (MIC values were supported by spectrophotometric readings at OD600). DMSO served as our vehicle and negative control in each microdilution MIC assay. DMSO was serially diluted with a top concentration of 1% v/v.
as §1, with “for each compound was” for “for each tested compound was”, “Standards Institute (CLSI).^6 In a” for “Standards Institute (CLSI). In a”, “concentration of test compound that” for “concentration of compound that”, “37° C. The concentration range tested for each compound during this study was 0.10 to 100 μM. DMSO served” for “37° C. (MIC values were supported by spectrophotometric readings at OD600). DMSO served”, “1% v/v. All MIC values were obtained from a minimum of three independent experiments.” for “1% v/v.”

VRE ATCC 700221 biofilms = test: Calgary Biofilm Device assay (MBC/MBEC), VRE 700221; format: cell-based, Enterococcus faecium; conditions: Table 2A; CBD assay
Method: (§2) The lid of the Calgary device was then removed, washed and transferred to another 96-well plate containing 2-fold serial dilutions of the test compounds (the “challenge plate”). The total volume of media with compound in each well in the challenge plate is 150 μL. […] The lid was then removed from the challenge plate and MBC/MBEC values were determined using different final assays. […] The MBC values were determined as the concentration giving a lack of visible bacterial growth (i.e., turbidity). […] In select experiments, pegs from the Calgary device were removed from lead biofilm eradicators after final incubation, sonicated for 30 minutes in PBS and plated out to determine biofilm cell killing of lead biofilm-eradicating agents (i.e., colony forming unit per milliliter, CFU/mL).
(§3) Using a Calgary Biofilm Device, bacterial biofilms are established on pegs suspended to the bottom of a 96-well plate lid. Following biofilm establishment on lid pegs, lids are then transferred to new 96-well plates containing serial dilutions of test compound and allowed to incubate. After compound treatment, 96-well plate lids with pegs are once again transferred to 96-well plates containing fresh media. During this final phase of the assay, viable biofilms will grow and disperse planktonic cells into the media where they will grow and give a turbid well result. Conversely, wells that have no growth are a result of pegs that had eradicated bacterial biofilms. The lowest concentration at which no turbidity is observed is the minimum biofilm eradication concentration (MBEC). Using the Calgary Biofilm Device, both minimum biofilm eradication concentrations and minimum bactericidal concentrations (MBC) for planktonic bacterial can be determined using one assay from a single bacterial culture (FIG. 3A).

[2] = tested on: methicillin-resistant Staphylococcus epidermidis (MRSE strain ATCC 35984); test: MIC broth microdilution, MRSE 35984; format: cell-based; conditions: for MIC S. epidermidis MRSE 35984: Table 1A; for MIC: Table 2A, read-out: MRSE 35984 MIC; for MIC MRSE 35984: Table 4
Method: as §1
as §1, with “for each compound was” for “for each tested compound was”, “Standards Institute (CLSI).^6 In a” for “Standards Institute (CLSI). In a”, “concentration of test compound that” for “concentration of compound that”, “37° C. The concentration range tested for each compound during this study was 0.10 to 100 μM. DMSO served” for “37° C. (MIC values were supported by spectrophotometric readings at OD600). DMSO served”, “1% v/v. All MIC values were obtained from a minimum of three independent experiments.” for “1% v/v.”

MRSA-2 biofilms = test: Calgary Biofilm Device assay (MBC/MBEC), MRSA-2; format: cell-based, Staphylococcus aureus; conditions: Table 2A; CBD assay
Method: as §2, §3

[3] = tested on: vancomycin-resistant Enterococcus faecium (VRE strain ATCC 700221); test: MIC broth microdilution, VRE 700221; format: cell-based; conditions: for MIC E. faecium VRE 700221: Table 1A; for VRE MIC: Table 2A; for MIC VRE 700221: Table 4
Method: as §1
as §1, with “for each compound was” for “for each tested compound was”, “Standards Institute (CLSI).^6 In a” for “Standards Institute (CLSI). In a”, “concentration of test compound that” for “concentration of compound that”, “37° C. The concentration range tested for each compound during this study was 0.10 to 100 μM. DMSO served” for “37° C. (MIC values were supported by spectrophotometric readings at OD600). DMSO served”, “1% v/v. All MIC values were obtained from a minimum of three independent experiments.” for “1% v/v.”

MRSA BAA-1707 biofilms = test: Calgary Biofilm Device assay (MBC/MBEC), MRSA BAA-1707; format: cell-based, Staphylococcus aureus; conditions: Table 2A; CBD assay
Method: as §2, §3

[4] = tested on: Acinetobacter baumannii (ATCC 1794); test: MIC broth microdilution, A. baumannii 1794; format: cell-based; conditions: for MIC A. baumannii 1794: Table 1A, in µM; for MIC A. bau. 1794: Table 4
Method: as §1
as §1, with “for each compound was” for “for each tested compound was”, “Standards Institute (CLSI).^6 In a” for “Standards Institute (CLSI). In a”, “concentration of test compound that” for “concentration of compound that”, “37° C. The concentration range tested for each compound during this study was 0.10 to 100 μM. DMSO served” for “37° C. (MIC values were supported by spectrophotometric readings at OD600). DMSO served”, “1% v/v. All MIC values were obtained from a minimum of three independent experiments.” for “1% v/v.”

[5] = tested on: human red blood cells (hRBC); test: Hemolysis of red blood cells; format: cell-based; conditions: for HC50: Table 1A; for RBC HC50: Table 4, concentration required to lyse 50% of red blood cells
Method: The washing was repeated three times with the buffer. In a 96-well plate, test compounds were added to the buffer from DMSO stocks. […] The plate was then incubated for 1 hour at 37° C. After incubation, the plate was centrifuged for 5 minutes at 3,500 rpm. Then 80 μL of the supernatant was transferred to another 96-well plate and the optical density (OD) was read at 405 nm. DMSO served as our negative control (0% hemolysis) while Triton X served as our positive control (100% hemolysis). […] All reported data correspond to three independent experiments. Ten-point dose-response curves were generated in 96-well plates to determine 50% hemolysis (HC50 values) of red blood cells.
The washing was repeated three times with the buffer. In 96-well plate, the test compounds were added to the buffer. Then 50 μL of 2% of hRBCs in the buffer were added to the test plate to make the final concentrations ranging from 0.2 to 200 μM of each test compound. The plate was then incubated for 1 hour at 37° C. After incubation, the plate was centrifuged for 5 minutes at 3500 rpm and then 80 μL of the supernatant was transferred to another 96-well plate and the Optical Density (OD) was read at 405 nm. DMSO served as our negative control (0% haemolysis) and Triton X served as our positive control (100% haemolysis). The HC50 (concentration of test compound required to lyse red blood cells by 50%) was calculated by plotting the dose-response curve (not shown) with Graphpad Prism 6.0. All data were obtained from three independent haemolysis experiments.

[6] = tested on: methicillin-resistant Staphylococcus aureus MRSA-2 (clinical isolate); test: MIC broth microdilution, MRSA-2; format: cell-based; conditions: for MRSA-2 MIC: Table 2A; for MIC: read-out: MIC MRSA-2
Method: as §1
as §1, with “for each compound was” for “for each tested compound was”, “Standards Institute (CLSI).^6 In a” for “Standards Institute (CLSI). In a”, “concentration of test compound that” for “concentration of compound that”, “37° C. The concentration range tested for each compound during this study was 0.10 to 100 μM. DMSO served” for “37° C. (MIC values were supported by spectrophotometric readings at OD600). DMSO served”, “1% v/v. All MIC values were obtained from a minimum of three independent experiments.” for “1% v/v.”

MRSE ATCC 35984 biofilms = test: Calgary Biofilm Device assay (MBC/MBEC), MRSE 35984; format: cell-based, Staphylococcus epidermidis; conditions: Table 2A; CBD assay
Method: as §2, §3

[7] = tested on: methicillin-sensitive Staphylococcus aureus ATCC 29213; test: MIC broth microdilution, S. aureus 29213; format: cell-based
Method: as §1, with “The MIC was defined as the lowest concentration of compound that prevented bacterial growth after incubating 16 to 18 hours at 37° C.” left out
(§4) Each well was inoculated with ˜10^5 bacterial cells at the initial time of incubation, prepared from a fresh log phase culture (OD600 of 0.5 to 1.0 depending on bacterial strain). […] The concentration range tested for each compound during this study was 0.10 to 100 μM. DMSO served as our vehicle and negative control in each microdilution MIC assay. DMSO was serially diluted with a top concentration of 1% v/v. All MIC values were obtained from a minimum of three independent experiments.

[8] = tested on: MRSA-1 (clinical isolate); test: MIC broth microdilution, MRSA-1; format: cell-based, Staphylococcus aureus
Method: as §1, with “The MIC was defined as the lowest concentration of compound that prevented bacterial growth after incubating 16 to 18 hours at 37° C.” left out
as §4

[9] = tested on: SA-138 (clinical isolate); test: MIC broth microdilution, SA-138; format: cell-based, Staphylococcus aureus
Method: as §1, with “The MIC was defined as the lowest concentration of compound that prevented bacterial growth after incubating 16 to 18 hours at 37° C.” left out
as §4

[10] = tested on: SA-156 (clinical isolate); test: MIC broth microdilution, SA-156; format: cell-based, Staphylococcus aureus
Method: as §1, with “The MIC was defined as the lowest concentration of compound that prevented bacterial growth after incubating 16 to 18 hours at 37° C.” left out
as §4

MRSA BAA-1707 = test: MIC broth microdilution, MRSA BAA-1707; format: cell-based, Staphylococcus aureus; conditions: for MIC: read-out: MIC MRSA BAA-1707
Method: as §1, with “The MIC was defined as the lowest concentration of compound that prevented bacterial growth after incubating 16 to 18 hours at 37° C.” left out
as §4

[11] = tested on: SA-147 (clinical isolate); test: MIC broth microdilution, SA-147; format: cell-based, Staphylococcus aureus
Method: as §1, with “The MIC was defined as the lowest concentration of compound that prevented bacterial growth after incubating 16 to 18 hours at 37° C.” left out
as §4

[12] = tested on: SA-129 (clinical isolate); test: MIC broth microdilution, SA-129; format: cell-based, Staphylococcus aureus
Method: as §1, with “The MIC was defined as the lowest concentration of compound that prevented bacterial growth after incubating 16 to 18 hours at 37° C.” left out
as §4

MRSA BAA-44 = test: MIC broth microdilution, MRSA BAA-44; format: cell-based, Staphylococcus aureus
Method: as §1, with “The MIC was defined as the lowest concentration of compound that prevented bacterial growth after incubating 16 to 18 hours at 37° C.” left out
as §4

SMILES | MIC PAO1 ([1]; Table 1A) [µM] | MIC PAO1 ([1]; Table 4) [µM] | MIC S. epidermidis MRSE 35984 [2] [µM] | MIC [2] [µM] | MIC MRSE 35984 [2] [µM] | MRSA-2 MBC (MRSA-2 biofilms) | MRSA-2 MBEC (MRSA-2 biofilms) | MIC E. faecium VRE 700221 [3] [µM] | VRE MIC [3] [µM] | MIC VRE 700221 [3] [µM] | MIC A. baumannii 1794 [4] | MIC A. bau. 1794 [4] [µM] | HC50 [5] [µM] | RBC HC50 [5] [µM] | MIC MRSA-2 ([6]; Table 1A) [µM] | MRSA-2 MIC [6] [µM] | MIC MRSA-2 ([6]; Table 4) [µM] | other results
CCCCCCCCCCCCCCCCn1cc[n+](Cc2ccc(F)cc2C(F)(F)F)c1C.[Br-] [Compound 16] | > 100 | >100 | 3.13 | 3.13 | 3.13 | 62.5/62.5 μM | 62.5/62.5 μM | 1.56 | 1.56 | 1.56 | >100 | >100 | 10.7 | 10.7 | 3.13 | 3.13 | 3.13 | VRE MBC (VRE ATCC 700221 biofilms): 2.0 µM⁻¹; VRE MBEC (VRE ATCC 700221 biofilms): 3.0^a μM; MRSA BAA-1707 MBC (MRSA BAA-1707 biofilms): 62.5^b/ μM; MRSA BAA-1707 MBEC (MRSA BAA-1707 biofilms): 93.8^a μM; MRSE 35984 MBC (MRSE ATCC 35984 biofilms): 23.5^a/ μM; MRSE 35984 MBEC (MRSE ATCC 35984 biofilms): 23.5^a μM
CCCCCCCCCCCCCCCCn1c(C)[n+](Cc2ccccc2)c2ccccc21.[Br-] [Compound 25] | > 100 | >100 | 3.13 | 3.13 | 3.13 | 250 µM | 188 µM | 1.56 | 1.56 | 1.56 | >100 | >100 | 10.4 | 10.4 | 3.13 | 3.13 | 3.13 | MIC ([7]; Table 1B): 12.5 µM; MIC ([7]; Table 3): 12.5 µM; MIC ([8]; Table 1B): 12.5 µM; MIC ([8]; Table 3): 12.5 µM; MIC ([9]; Table 1B): 6.25 µM; MIC ([9]; Table 3): 6.25 µM; MIC ([10]; Table 1B): 12.5 µM; MIC ([10]; Table 3): 12.5 µM; MIC (MRSA BAA-1707; Table 1B): 12.5 µM; MRSA BAA-1707 MIC (MRSA BAA-1707; Table 2A): 9.38^a μM; MIC (MRSA BAA-1707; Table 3): 12.5 µM; MIC MRSA 1707 (MRSA BAA-1707; Table 4): 9.38a micromolar; MIC ([11]; Table 1B): 6.25 µM; MIC ([11]; Table 3): 6.25 µM; MIC ([12]; Table 1B): 3.13 µM; MIC ([12]; Table 3): 3.13 µM; MIC ([6]; Table 1B): 12.5 µM; MIC ([6]; Table 3): 3.13 µM; MIC (MRSA BAA-44; Table 1B): 12.5 µM; MIC (MRSA BAA-44; Table 3): 12.5 µM

Reference: US11419335B2, “N-arylated analogues and uses thereof” (University of Florida Research Foundation, Incorporated, priority 2016, dated 2022)
